Laboratory results published in patent publication US6503929B1, “Nitrate salt of anti-ulcer medicine” (Nicox S.A., priority 1998, dated 2003).
Where a name gives a salt, the structure may show the parent alone.

Assays:
rats [1] = test: Anti-ulcer activity: gastric lesions produced by absolute ethyl alcohol (Robert et al. model); assay type: in vivo, rat; conditions: rats on empty stomach, oral dose 15 minutes before absolute ethyl alcohol (1 ml), sacrificed one hour later, cimetidine 50 mg/Kg, cimetidine nitrate 62,5 mg/Kg, ranitidine 50 mg/Kg, ranitidine nitrate 60 mg/Kg
Description: Anti-ulcer activity is evaluated according to the experimental model described in the paper of A. Robert e Al. “Cytoprotection by prostaglandins in rats. Prevention of gastric necrosis produced by alcohol, HCl, NaOH, hypertonic NaCl and thermal injury” 77, 433-43 1979. To 5 groups of 10 rats each, kept on empty stomach since the previous night, 15 minutes before the supply of absolute ethyl alcohol (1 ml), by oral way are supplied: 5 ml/Kg of carboxymethylcellulose aqueous suspension 2%. 50 mg/Kg of cimetidine in 5 ml/Kg of carboxymethylcellulose aqueous suspension 2%. 62,5 mg/Kg of cimetidine nitrate (corresponding to 50 mg/Kg of cimetidine) in 5 ml/Kg of carboxymethylcellulose aqueous suspension 2%. 50 mg/Kg of ranitidine in 5 ml/Kg of carboxymethylcellulose aqueous suspension 2%. 60 mg/Kg of ranitidine nitrate (corresponding to […]) in 5 ml/Kg of carboxymethylcellulose aqueous suspension 2%. A hour later the animals are sacrificed and the gastric lesion incidence is evaluated.

rats [2] = conditions: rat, in vivo, po, 100 mg/kg

CN/C(=N/CCSCc1nc[nH]c1C)NC#N [Cimetidine, cimetidine, reference compound]
Gastric Damage % (rats [1]): 100%

CNC(=C[N+](=O)[O-])NCCSCc1ccc(CN(C)C)o1 [Ranitidine, ranitidine, reference compound]
Gastric Damage % (rats [1]): 80%

cimetidine mononitrate salt [Cimetidine.HNO3]
Gastric Damage % (rats [1]): 50%

CNC(=C[N+](=O)[O-])NCCSCc1ccc(CN(C)C)o1 [Ranitidine.HNO3, ranitidine mononitrate salt]
Gastric Damage % (rats [1]; mononitrate salt): 40%
toxic symptom presence (rats [2]): In no one of the group animals the toxic symthom presence was noted
